The values below come from paper PMC5882164, “A novel calcimimetic agent, evocalcet (MT-4580/KHK7580), suppresses the parathyroid cell function with little effect on the gastrointestinal tract or CYP isozymes in vivo and in vitro” (PLoS ONE, 2018).

For series [1] the following is noted: rats; no reference given; cited from earlier work.
Series [2] in a line: Plasma concentrations of evocalcet after repeated oral administration to 5/6 nephrectomized rats. It counts as in vivo, rat. Particulars: 5/6 Nx rats. On the procedure: In the single-dose study, blood samples were collected from the tail vein before and at 0.5, 2, 4, 8, 24, 48, and 72 h after the oral administration of vehicle (0.5% methyl cellulose solution) or evocalcet (0.03, 0.1, 0.3, or 1 mg/kg). In the repeated-dose study, vehicle or evocalcet was orally administered to the respective groups once daily for 14 days. Blood samples were obtained from the tail vein before the first administration and after the seventh and last administrations.
The plasma concentrations of evocalcet were determined after single or repeated oral administration in both normal and 5/6 Nx rats. The pharmacokinetic (PK) parameters of the rat plasma concentrations were calculated individually using Phoenix WinNonlin 6.2, a PK analysis software program (Pharsight Corporation, Sunnyvale, CA).

Several values for one entry are separate records, joined by “and”; a condition that tells them apart may be missing. Identical values can stand only once. Counter-ions that a name gives are not always drawn.

Take `C[C@@H](NCCCc1cccc(C(F)(F)F)c1)c1cccc2ccccc12` [cinacalcet, Cinacalcet hydrochloride, reference compound]: the bioavailability in series [1] was 1%-2%.

With `C[C@@H](N[C@H]1CCN(c2ccc(CC(=O)O)cc2)C1)c1cccc2ccccc12` [evocalcet], the Plasma concentration in series [2] (repeated oral 0.03 mg/kg, Day 1, 0.5 h, individual rats, 0.03 mg/kg) was 36.58 ng/mL and 70.85 ng/mL and 82.54 ng/mL and 69.68 ng/mL and 77.69 ng/mL and 41.93 ng/mL and 76.13 ng/mL; in series [2] (repeated oral 0.03 mg/kg, Day 1, 0.5 h, mean), 64.96 ng/mL; in series [2] (repeated oral 0.03 mg/kg, Day 1, 24 h, individual rats, 0.03 mg/kg), 1.641 ng/mL and 1.374 ng/mL and 5.810 ng/mL and 8.969 ng/mL and 1.766 ng/mL and 7.813 ng/mL and 3.603 ng/mL; in series [2] (repeated oral 0.03 mg/kg, Day 1, 24 h, mean), 4.696 ng/mL; in series [2] (repeated oral 0.03 mg/kg, Day 7, 24 h, individual rats, 0.03 mg/kg) it was 2.975 ng/mL and 2.144 ng/mL and 14.97 ng/mL and 24.57 ng/mL and 7.857 ng/mL and 2.119 ng/mL and 5.014 ng/mL; in series [2] (repeated oral 0.03 mg/kg, Day 7, 24 h, mean) it was 6.838 ng/mL. Moreover, the Plasma concentration in series [2] (repeated oral 0.03 mg/kg, Day 14, 0.5 h, individual rats, 0.03 mg/kg) is 19.34 ng/mL and 56.51 ng/mL and 53.07 ng/mL and 90.16 ng/mL and 75.39 ng/mL and 23.11 ng/mL and 72.02 ng/mL; in series [2] (repeated oral 0.03 mg/kg, Day 14, 0.5 h, mean) it was 51.46 ng/mL; in series [2] (repeated oral 0.03 mg/kg, Day 14, 24 h, individual rats, 0.03 mg/kg), 3.012 ng/mL and 3.971 ng/mL and 9.010 ng/mL and 15.92 ng/mL and 10.68 ng/mL and 0.6289 ng/mL and 6.008 ng/mL; in series [2] (repeated oral 0.03 mg/kg, Day 14, 24 h, mean), 9.081 ng/mL; in series [2] (repeated oral 0.1 mg/kg, Day 1, 0.5 h, individual rats, 0.1 mg/kg) it was 202.3 ng/mL and 254.1 ng/mL and 209.7 ng/mL and 142.8 ng/mL and 254.2 ng/mL and 143.9 ng/mL and 56.83 ng/mL and 269.5 ng/mL; in series [2] (repeated oral 0.1 mg/kg, Day 1, 24 h, individual rats, 0.1 mg/kg) it was 15.16 ng/mL and 12.10 ng/mL and 8.688 ng/mL and 14.16 ng/mL and 21.79 ng/mL and 16.89 ng/mL and 67.75 ng/mL and 32.61 ng/mL. In addition, the Plasma concentration in series [2] (repeated oral 0.1 mg/kg, Day 7, 24 h, individual rats, 0.1 mg/kg) was 58.71 ng/mL and 48.75 ng/mL and 30.51 ng/mL and 37.24 ng/mL and 78.95 ng/mL and 69.59 ng/mL and 161.4 ng/mL and 61.03 ng/mL; in series [2] (repeated oral 0.1 mg/kg, Day 14, 0.5 h, individual rats, 0.1 mg/kg) it was 127.4 ng/mL and 39.41 ng/mL and 36.70 ng/mL and 54.83 ng/mL and 93.73 ng/mL and 108.2 ng/mL and 128.5 ng/mL and 174.0 ng/mL; in series [2] (repeated oral 0.1 mg/kg, Day 14, 24 h, individual rats, 0.1 mg/kg), 5.812 ng/mL and 5.988 ng/mL and 9.558 ng/mL and 3.499 ng/mL and 32.22 ng/mL and 49.20 ng/mL and 104.7 ng/mL and 11.96 ng/mL; in series [2] (0.03 mg/kg oral once daily, Day 1, 0.5 h, mean, n = 12), 64.96 ng/mL; in series [2] (0.03 mg/kg oral once daily, Day 1, 24 h, mean, n = 12), 4.696 ng/mL; in series [2] (0.03 mg/kg oral once daily, Day 7, 24 h, mean, n = 12), 6.838 ng/mL. Moreover, the Plasma concentration was 51.46 ng/mL in series [2] (0.03 mg/kg oral once daily, Day 14, 0.5 h, mean, n = 12); 9.081 ng/mL in series [2] (0.03 mg/kg oral once daily, Day 14, 24 h, mean, n = 12); 204.2 ng/mL in series [2] (0.1 mg/kg oral once daily, Day 1, 0.5 h, mean, n = 12); 21.78 ng/mL in series [2] (0.1 mg/kg oral once daily, Day 1, 24 h, mean, n = 12); 53.46 ng/mL in series [2] (0.1 mg/kg oral once daily, Day 7, 24 h, mean, n = 12); 133.8 ng/mL in series [2] (0.1 mg/kg oral once daily, Day 14, 0.5 h, mean, n = 12). The Plasma concentration was 29.24 ng/mL in series [2] (0.1 mg/kg oral once daily, Day 14, 24 h, mean, n = 12); 545.5 ng/mL in series [2] (0.3 mg/kg oral once daily, Day 1, 0.5 h, mean, n = 12); 90.48 ng/mL in series [2] (0.3 mg/kg oral once daily, Day 1, 24 h, mean, n = 12); 190.6 ng/mL in series [2] (0.3 mg/kg oral once daily, Day 7, 24 h, mean, n = 12); 686.9 ng/mL in series [2] (0.3 mg/kg oral once daily, Day 14, 0.5 h, mean, n = 12); 102.1 ng/mL in series [2] (0.3 mg/kg oral once daily, Day 14, 24 h, mean, n = 12). For the same compound, the Plasma concentration in series [2] (1 mg/kg oral once daily, Day 1, 0.5 h, mean, n = 12) is 1635 ng/mL; in series [2] (1 mg/kg oral once daily, Day 1, 24 h, mean, n = 12), 285.7 ng/mL; in series [2] (1 mg/kg oral once daily, Day 7, 24 h, mean, n = 12), 557.2 ng/mL; in series [2] (1 mg/kg oral once daily, Day 14, 0.5 h, mean, n = 12) it was 1769 ng/mL; in series [2] (1 mg/kg oral once daily, Day 14, 24 h, mean, n = 12) it was 490.6 ng/mL.
